Here are results for two compounds from patent US4199568A, “Tetrapeptide amides” (Reckitt & Colman Products Limited, priority 1977, dated 1980).

As usually defined, the ED50 is the dose that gives a 50% effect, or the effect in half of the subjects. Read a high ED50 as weaker potency.

One assay has as its system opiate receptor sites. The assay is described as follows: transmurally stimulated guinea pig ileum preparation (Kosterlitz and Watt), agonist activity compared with Met-enkephaline. It counts as cell-based. Particulars: isolated guinea pig ileum twitch response, 0.1 Hz stimulation; dose response curve compared with Met-enkephaline. From the text: Thus for example they have affinity for opiate receptor sites and as such may be useful as anagesics, narcotic antagonists or anti-diarrhoeal agents. The test used for the detection of their agonist activity at opiate receptor sites is that of employing the transmurally stimulated guinea pig ileum preparation described in Kosterlitz H. W., and Watt A. J., Brit. J. Pharmacol, and Chemotherapy 33, […] (1968).
In the above mentioned test method of Kosterlitz and Watt male or female guinea pigs (Duncan Hartley strain) are killed by a blow on the head and a portion of the ileum removed and set up in an isolated organ bath of 50 ml volume. A `twitch` response is produced by low frequency (0.1 Hz) stimulation with 0.5 msec rectilinear pulses. The response is depressed by a large number of different pharmacologically active agents (local anaesthetics, smooth muscle depressants, presynaptic α-receptor stimulants, and narcotic agonists).
A test compound is dissolved in distilled water to produce a stock solution of concentration 1 mg/ml. Serial dilutions are carried out using Krebs solution to product concentrations of 10 ug, 1 ug and 0.1 ug/ml. The compound is tested by adding between 0.1-0.3 ml of the solutions to the organ bath. A dose response curve is then drawn and compared with that for Met-enkephaline.

Assay [1] concerns phenylquinone induced writhing. The assay is described as follows: mouse phenylquinone induced writhing test (Hendershot and Forsaith). As to conditions: administered i.v. It counts as in vivo. The method, then: The compounds were also evaluated in the mouse phenylquinone induced writhing test of Hendershot L. C. and Forsaith J., J. Pharm. Exp. Therap.
For orientation: Writhing tests count abdominal constrictions after an irritant is injected.

In the case of `C[C@@H](NC(=O)[C@@H](N)Cc1ccc(O)cc1)C(=O)NCC(=O)N(C)[C@@H](Cc1ccccc1)C(=O)NCCC[S+](C)[O-].Cl` (stereo partly drawn) [H-Tyr-D-Ala-Gly-MePhe-NH(CH2)3 SOMe, L-Tyrosyl-D-alanyl-glycyl-N-methyl-L-phenylalanine-3-methylsulphinylpropylamide hydrochloride], the “activity relative to Met-enkephaline” value in the assay on opiate receptor sites is “approximately eleven”. In assay [1], the ED50 worked out at 4.5 µg/kg.
The corresponding values for `CN[C@@H](Cc1ccc(O)cc1)C(=O)N[C@H](C)C(=O)NCC(=O)N(C)[C@@H](Cc1ccccc1)C(=O)NCCC[S+](C)[O-].Cl` (stereo partly drawn) [Me-Tyr-D-Ala-Gly-MePhe-NH(CH2)3 SOMe, N-Methyl-L-tyrosyl-D-alanyl-glycyl-N-methyl-L-phenylalanine-3-methylsulphinylpropylamide hydrochloride] are “approximately fifteen” and 4 µg/kg.
